Results reported in PubChem BioAssay AID248 (DTP/NCI, 2004).
Several values for one entry are separate records, joined by “and”; a condition that tells them apart may be missing. Equal entries are not always repeated. Toxic doses and inconclusive results are not listed. Cut-off read from the data, not from the text of the source: active = T/C of 150% or more; inactive = T/C below 125%.

Tested on: L1210 leukemia ip in BDF1 mice, survival T/C
Assay: NCI In Vivo Anticancer Drug Screen. Data for tumor model L1210 Leukemia (intraperitoneal) in B6D2F1 (BDF1) mice
Details: higher = longer survival
Summary of the method: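 Survival endpoint. Drug-treated group vs vehicle group, expressed as T divided by C. Tumor passaged by transplantation.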

[1] = endpoint: mean survival time, dose: 100.0 mg/kg/injection, schedule: Q01DX001 (ip), vehicle: carboxymethylcellulose (CMC)
[2] = endpoint: mean survival time, dose: 200.0 mg/kg/injection, schedule: Q01DX001 (ip), vehicle: carboxymethylcellulose (CMC)
[3] = endpoint: mean survival time, dose: 400.0 mg/kg/injection, schedule: Q01DX001 (ip), vehicle: carboxymethylcellulose (CMC)
[4] = endpoint: mean survival time, dose: 100.0 mg/kg/injection, schedule: Q01DX001 (ip), vehicle: saline
[5] = endpoint: mean survival time, dose: 200.0 mg/kg/injection, schedule: Q01DX001 (ip), vehicle: saline
[6] = endpoint: mean survival time, dose: 400.0 mg/kg/injection, schedule: Q01DX001 (ip), vehicle: saline
[7] = endpoint: mean survival time, dose: 50.0 mg/kg/injection, schedule: Q04DX002 (ip), vehicle: saline with Tween-80
[8] = endpoint: mean survival time, dose: 50.0 mg/kg/injection, schedule: Q01DX001 (ip), vehicle: carboxymethylcellulose (CMC)

Measured: T/C

S=C(S)NC1c2ccccc2-c2ccccc21 (tested in a mixture with another compound)
inactive: [1] 94 % of control | [2] 90 % of control | [3] 96 % of control

CCOc1ccc2[nH]c(C)c(CC(=O)O)c2c1
inactive: endpoint: mean survival time, dose: 100.0 mg/kg/injection, schedule: Q01DX001 (ip), vehicle: saline with Tween-80 97 % of control | endpoint: mean survival time, dose: 200.0 mg/kg/injection, schedule: Q01DX001 (ip), vehicle: saline with Tween-80 103 % of control | endpoint: mean survival time, dose: 400.0 mg/kg/injection, schedule: Q01DX001 (ip), vehicle: saline with Tween-80 97 % of control

CCOC(=O)C1C(CCC#N)C(=O)CCC1(C#N)c1ccccc1 (centres undefined)
inactive: endpoint: mean survival time, dose: 100.0 mg/kg/injection, schedule: Q04DX003 (ip), vehicle: acetone 98 % of control | endpoint: mean survival time, dose: 200.0 mg/kg/injection, schedule: Q04DX003 (ip), vehicle: acetone 95 % of control | endpoint: mean survival time, dose: 400.0 mg/kg/injection, schedule: Q04DX003 (ip), vehicle: acetone 98 % of control

CCOC(=O)NCC(C)(C)C
inactive: [4] 104 % of control | [5] 107 % of control | [6] 93 % of control

O=C(Cc1ccc(N(CCCl)CCCl)cc1)NC1CCCC1
inactive: endpoint: mean survival time, dose: 100.0 mg/kg/injection, schedule: Q04DX003 (ip), vehicle: Klucel (hydroxypropylcellulose) (HPC) 117 % of control | endpoint: mean survival time, dose: 200.0 mg/kg/injection, schedule: Q04DX003 (ip), vehicle: Klucel (hydroxypropylcellulose) (HPC) 120 % of control | endpoint: mean survival time, dose: 266.0 mg/kg/injection, schedule: Q04DX003 (ip), vehicle: Klucel (hydroxypropylcellulose) (HPC) 107 % of control and 112 % of control | endpoint: mean survival time, dose: 400.0 mg/kg/injection, schedule: Q04DX003 (ip), vehicle: Klucel (hydroxypropylcellulose) (HPC) 102 % of control and 119 % of control

CC(=O)N1CC(n2nnc3c(N)ncnc32)CC1CO (centres undefined)
inactive: endpoint: mean survival time, dose: 12.5 mg/kg/injection, schedule: Q04DX002 (ip), vehicle: saline with Tween-80 98 % of control | endpoint: mean survival time, dose: 25.0 mg/kg/injection, schedule: Q04DX002 (ip), vehicle: saline with Tween-80 102 % of control | [7] 94 % of control

c1ccc2c(c1)CC1c3ccccc3CC21 (centres undefined)
inactive: [4] 109 % of control | [5] 103 % of control | [6] 98 % of control

CC(=O)Nc1ccc(S(=O)(=O)Nc2ccccc2F)cc1
inactive: endpoint: mean survival time, dose: 100.0 mg/kg/injection, schedule: Q01DX009 (ip), vehicle: saline 102 % of control | endpoint: mean survival time, dose: 200.0 mg/kg/injection, schedule: Q01DX009 (ip), vehicle: saline 102 % of control | endpoint: mean survival time, dose: 400.0 mg/kg/injection, schedule: Q01DX009 (ip), vehicle: saline 105 % of control

CC(=O)N1N=C(c2ccccc2)CC1C1CC(c2ccccc2)=NN1C(C)=O (centres undefined)
inactive: [4] 102 % of control | [5] 100 % of control | [6] 102 % of control

CN(C)C(=O)Sc1ccc2c(c1)CCC1C2CCC2(C)C(=O)CCC12 (centres undefined)
inactive: endpoint: mean survival time, dose: 100.0 mg/kg/injection, schedule: Q01DX001 (ip), vehicle: gum acacia 101 % of control | endpoint: mean survival time, dose: 200.0 mg/kg/injection, schedule: Q01DX001 (ip), vehicle: gum acacia 101 % of control | endpoint: mean survival time, dose: 400.0 mg/kg/injection, schedule: Q01DX001 (ip), vehicle: gum acacia 97 % of control

O=C(CCCl)Nc1cccc2c1C(=O)c1c(c(O)c3ccccc3c1O)C2=O
inactive: endpoint: mean survival time, dose: 100.0 mg/kg/injection, schedule: Q04DX003 (ip), vehicle: saline with Tween-80 90 % of control | endpoint: mean survival time, dose: 200.0 mg/kg/injection, schedule: Q04DX003 (ip), vehicle: saline with Tween-80 92 % of control | endpoint: mean survival time, dose: 400.0 mg/kg/injection, schedule: Q04DX003 (ip), vehicle: saline with Tween-80 91 % of control

CC(=O)Nc1ccc(NC(=O)c2ccc(C(=O)Nc3ccc(NC(C)=O)cc3)cc2)cc1
inactive: endpoint: mean survival time, dose: 100.0 mg/kg/injection, schedule: Q01DX001 (ip), vehicle: other 98 % of control | endpoint: mean survival time, dose: 200.0 mg/kg/injection, schedule: Q01DX001 (ip), vehicle: other 93 % of control | endpoint: mean survival time, dose: 400.0 mg/kg/injection, schedule: Q01DX001 (ip), vehicle: other 96 % of control

NC(Cc1cc(I)c(Oc2cc(I)c(O)c(I)c2)c(I)c1)C(=O)O (centres undefined)
inactive: endpoint: median survival time, dose: 0.63 mg/kg/injection, schedule: Q01DX009 (ip), vehicle: saline 98 % of control | endpoint: median survival time, dose: 2.5 mg/kg/injection, schedule: Q01DX009 (ip), vehicle: saline 92 % of control | endpoint: median survival time, dose: 10.0 mg/kg/injection, schedule: Q01DX009 (ip), vehicle: saline 88 % of control | endpoint: median survival time, dose: 40.0 mg/kg/injection, schedule: Q01DX009 (ip), vehicle: saline 93 % of control

CCO/N=C(/C)C(C)SC#N (centres undefined)
inactive: endpoint: mean survival time, dose: 10.0 mg/kg/injection, schedule: Q01DX001 (ip), vehicle: saline 97 % of control | endpoint: mean survival time, dose: 20.0 mg/kg/injection, schedule: Q01DX001 (ip), vehicle: saline 105 % of control

Cc1ccc(S(=O)(=O)OC2C(C)C3CS(=O)(=O)C32)cc1 (centres undefined)
inactive: endpoint: mean survival time, dose: 100.0 mg/kg/injection, schedule: Q04DX002 (ip), vehicle: DMSO 119 % of control | endpoint: mean survival time, dose: 200.0 mg/kg/injection, schedule: Q04DX002 (ip), vehicle: DMSO 105 % of control | endpoint: mean survival time, dose: 400.0 mg/kg/injection, schedule: Q04DX002 (ip), vehicle: DMSO 102 % of control

O=C(CCCOc1ccccc1)NCc1ccccc1[N+](=O)[O-]
inactive: endpoint: mean survival time, dose: 100.0 mg/kg/injection, schedule: Q01DX001 (ip), vehicle: Klucel (hydroxypropylcellulose) (HPC) 92 % of control | endpoint: mean survival time, dose: 200.0 mg/kg/injection, schedule: Q01DX001 (ip), vehicle: Klucel (hydroxypropylcellulose) (HPC) 96 % of control | endpoint: mean survival time, dose: 400.0 mg/kg/injection, schedule: Q01DX001 (ip), vehicle: Klucel (hydroxypropylcellulose) (HPC) 102 % of control

c1ccc2c(c1)OCOc1ccccc1OCO2
inactive: [1] 94 % of control | [2] 92 % of control | [3] 92 % of control

CC[N+](CC)(CC)CCC[N+](CC)(CC)CC
inactive: endpoint: mean survival time, dose: 30.0 mg/kg/injection, schedule: Q01DX009 (ip), vehicle: water 98 % of control | endpoint: mean survival time, dose: 50.0 mg/kg/injection, schedule: Q01DX009 (ip), vehicle: water 95 % of control and 96 % of control | endpoint: mean survival time, dose: 80.0 mg/kg/injection, schedule: Q01DX009 (ip), vehicle: water 98 % of control | endpoint: mean survival time, dose: 100.0 mg/kg/injection, schedule: Q04DX003 (ip), vehicle: water 103 % of control | endpoint: mean survival time, dose: 200.0 mg/kg/injection, schedule: Q04DX003 (ip), vehicle: water 99 % of control

Brc1ccc2c(c1)-c1cc(Br)ccc1C2
inactive: [7] 95 % of control | endpoint: mean survival time, dose: 100.0 mg/kg/injection, schedule: Q04DX002 (ip), vehicle: saline with Tween-80 100 % of control | endpoint: mean survival time, dose: 200.0 mg/kg/injection, schedule: Q04DX002 (ip), vehicle: saline with Tween-80 103 % of control | endpoint: mean survival time, dose: 400.0 mg/kg/injection, schedule: Q04DX002 (ip), vehicle: saline with Tween-80 95 % of control

CC1(C)N=C(N)N=C(N)N1c1cccc(CCCCc2c(Cl)cccc2Cl)c1
inactive: endpoint: mean survival time, dose: 25.0 mg/kg/injection, schedule: Q01DX001 (ip), vehicle: saline 105 % of control | endpoint: mean survival time, dose: 50.0 mg/kg/injection, schedule: Q01DX001 (ip), vehicle: saline 86 % of control | [4] 95 % of control

Nc1nc(N)c(N=Nc2ccc(Cl)cc2)c(Cl)n1
inactive: [1] 94 % of control | [2] 97 % of control | [3] 94 % of control

O=C(O)Cc1ccc2ccccc2c1Br
inactive: endpoint: mean survival time, dose: 100.0 mg/kg/injection, schedule: Q04DX003 (ip), vehicle: saline 97 % of control | endpoint: mean survival time, dose: 200.0 mg/kg/injection, schedule: Q04DX003 (ip), vehicle: saline 95 % of control | endpoint: mean survival time, dose: 400.0 mg/kg/injection, schedule: Q04DX003 (ip), vehicle: saline 90 % of control

Cc1ccccc1NP1(=O)OCCCN1Cc1ccccc1Cl (centres undefined)
inactive: [8] 104 % of control | [1] 96 % of control | [2] 98 % of control | [3] 95 % of control

Nc1nc(N)c2c(n1)CN(Cc1ccccc1)C2
inactive: endpoint: mean survival time, dose: 25.0 mg/kg/injection, schedule: Q01DX001 (ip), vehicle: carboxymethylcellulose (CMC) 103 % of control | [8] 103 % of control

O=[N+]([O-])c1cc(N(c2ccccc2)c2ccccc2)cc([N+](=O)[O-])c1
inactive: [1] 103 % of control | [2] 108 % of control | [3] 103 % of control
